Assays:
[1] = system: Adjuvant Arthritis in rats; experiment: Preventive effect on adjuvant induced adjuvant arthritis in rats; type: in vivo, Rat, SD strain
Method: (§1) Freund's Adjuvant Complete, purchased from Sigma Company, was injected into the plantar surface of the right hind paw by 0.1 ml in order to induce inflammation in rats.
(§2) Animals were firstly divided into large dose group: 10 mg/kg, iv, medium dose group: 5 mg/kg, iv, small dose group: 2.5 mg/kg, iv, Indomethacin group: 1 mg/kg, po, Tripterygium Wilfordii Hook group: 1.5 mg/kg, po and blank control group: physiological saline 10 mg/kg, iv. The volume of the right hind paw of the rats was measured by using hydroplethismometer before inflammation induced. Then 0.1 ml Freund's Adjuvant Complete was injected into the plantar surface of the right hind paw in order to induce inflammation in rats. The rats were grouped by the foregoing division way in the succeeding day, and to be administered for 15 days. The volume of paw was measured in regular intervals. Swell rate and inhibition rate were calculated by the same method as the foregoing. Differences among groups were compared by t test.

[2] = system: Adjuvant Arthritis in rats; experiment: Treatment effect on adjuvant induced adjuvant arthritis in rats; type: in vivo, Rat, SD strain
Method: as §1
as §2, with “1.5 mg/kg, po. and blank” for “1.5 mg/kg, po and blank”, “in rats. 20 days after inflammation induced, the rats were” for “in rats. The rats were”, “foregoing division method and to” for “foregoing division way in the succeeding day, and to”, “administered for 8 days. The” for “administered for 15 days. The”, “were calculated with the same” for “were calculated by the same”, “were compared with t test.” for “were compared by t test.”

Structure (SMILES): CC(C)=CCC[C@](C)(O[C@@H]1O[C@H](CO)[C@@H](O)[C@H](O)[C@H]1O)[C@H]1CC[C@]2(C)[C@@H]1[C@H](O)C[C@@H]1[C@@]3(C)CC[C@H](O)C(C)(C)[C@@H]3CC[C@]12C [Ginsenoside Compound-K, ginsenoside Compound-K]
- swell value ([1]; 2.5 mg/kg iv, 0 day): 1.24 ± 0.08 mL
- inhibition rate ([1]; 2.5 mg/kg iv, 2 day): <21.71> %
- swell rate ([1]; 2.5 mg/kg iv, 2 day): (56.65 ± 17.83) %
- swell value ([1]; 2.5 mg/kg iv, 2 day): 2.14 ± 0.15 mL
- inhibition rate ([1]; 2.5 mg/kg iv, 4 day): <18.33> %
- swell rate ([1]; 2.5 mg/kg iv, 4 day): (73.11 ± 15.82) %
- swell value ([1]; 2.5 mg/kg iv, 4 day): 2.14 ± 0.15 mL
- inhibition rate ([1]; 2.5 mg/kg iv, 6 day): <20.67> %
- swell rate ([1]; 2.5 mg/kg iv, 6 day): (70.87 ± 14.91) %
- swell value ([1]; 2.5 mg/kg iv, 6 day): 2.11 ± 0.10 mL
- inhibition rate ([1]; 2.5 mg/kg iv, 9 day): <20.95> %
- swell rate ([1]; 2.5 mg/kg iv, 9 day): (57.25 ± 14.42) %
- swell value ([1]; 2.5 mg/kg iv, 9 day): 1.95 ± 0.17 mL
- inhibition rate ([1]; 2.5 mg/kg iv, 11 day): <20.82> %
- swell rate ([1]; 2.5 mg/kg iv, 11 day): (61.69 ± 21.61) %
- swell value ([1]; 2.5 mg/kg iv, 11 day): 2.00 ± 0.26 mL
- inhibition rate ([1]; 2.5 mg/kg iv, 13 day): <25.97> %
- swell rate ([1]; 2.5 mg/kg iv, 13 day): (61.24 ± 13.26) %
- swell value ([1]; 2.5 mg/kg iv, 13 day): 2.00 ± 0.15 mL
- inhibition rate ([1]; 2.5 mg/kg iv, 15 day): <28.05> %
- swell rate ([1]; 2.5 mg/kg iv, 15 day): (58.02 ± 15.92) %
- swell value ([1]; 2.5 mg/kg iv, 15 day): 1.96 ± 0.20 mL
- swell value ([1]; 5 mg/kg iv, 0 day): 1.25 ± 0.06 mL
- inhibition rate ([1]; 5 mg/kg iv, 2 day): <35.56> %
- swell rate ([1]; 5 mg/kg iv, 2 day): (46.63 ± 11.66) %
- swell value ([1]; 5 mg/kg iv, 2 day): 2.10 ± 0.21 mL
- inhibition rate ([1]; 5 mg/kg iv, 4 day): <23.65> %
- swell rate ([1]; 5 mg/kg iv, 4 day): (68.35 ± 15.68) %
- swell value ([1]; 5 mg/kg iv, 4 day): 2.10 ± 0.21 mL
- inhibition rate ([1]; 5 mg/kg iv, 6 day): <17.94> %
- swell rate ([1]; 5 mg/kg iv, 6 day): (73.31 ± 17.73) %
- swell value ([1]; 5 mg/kg iv, 6 day): 2.16 ± 0.18 mL
- inhibition rate ([1]; 5 mg/kg iv, 9 day): <20.45> %
- swell rate ([1]; 5 mg/kg iv, 9 day): (57.60 ± 13.83) %
- swell value ([1]; 5 mg/kg iv, 9 day): 1.97 ± 0.21 mL
- inhibition rate ([1]; 5 mg/kg iv, 11 day): <28.37> %
- swell rate ([1]; 5 mg/kg iv, 11 day): (55.81 ± 11.54) %
- swell value ([1]; 5 mg/kg iv, 11 day): 1.95 ± 0.18 mL
- inhibition rate ([1]; 5 mg/kg iv, 13 day): <27.79> %
- swell rate ([1]; 5 mg/kg iv, 13 day): (59.74 ± 11.82) %
- swell value ([1]; 5 mg/kg iv, 13 day): 2.00 ± 0.18 mL
- inhibition rate ([1]; 5 mg/kg iv, 15 day): <29.21> %
- swell rate ([1]; 5 mg/kg iv, 15 day): (57.08 ± 14.00) %
- swell value ([1]; 5 mg/kg iv, 15 day): 1.96 ± 0.21 mL
- swell value ([1]; 10 mg/kg iv, 0 day): 1.29 ± 0.08 mL
- inhibition rate ([1]; 10 mg/kg iv, 2 day): <29.48> %
- swell rate ([1]; 10 mg/kg iv, 2 day): (51.03 ± 8.03) %
- swell value ([1]; 10 mg/kg iv, 2 day): 2.17 ± 0.14 mL
- inhibition rate ([1]; 10 mg/kg iv, 4 day): <22.99> %
- swell rate ([1]; 10 mg/kg iv, 4 day): (68.94 ± 10.49) %
- swell value ([1]; 10 mg/kg iv, 4 day): 2.17 ± 0.14 mL
- inhibition rate ([1]; 10 mg/kg iv, 6 day): <19.52> %
- swell rate ([1]; 10 mg/kg iv, 6 day): (71.90 ± 9.64%
- swell value ([1]; 10 mg/kg iv, 6 day): 2.21 ± 0.15 mL
- inhibition rate ([1]; 10 mg/kg iv, 9 day): <19.59> %
- swell rate ([1]; 10 mg/kg iv, 9 day): (58.23 ± 11.44) %
- swell value ([1]; 10 mg/kg iv, 9 day): 2.03 ± 0.15 mL
- inhibition rate ([1]; 10 mg/kg iv, 11 day): <30.08> %
- swell rate ([1]; 10 mg/kg iv, 11 day): (54.48 ± 12.39) %
- swell value ([1]; 10 mg/kg iv, 11 day): 1.98 ± 0.14 mL
- inhibition rate ([1]; 10 mg/kg iv, 13 day): <29.83> %
- swell rate ([1]; 10 mg/kg iv, 13 day): (58.04 ± 10.97) %
- swell value ([1]; 10 mg/kg iv, 13 day): 2.03 ± 0.13 mL
- inhibition rate ([1]; 10 mg/kg iv, 15 day): <31.26> %
- swell rate ([1]; 10 mg/kg iv, 15 day): (55.42 ± 14.65) %
- swell value ([1]; 10 mg/kg iv, 15 day): 1.99 ± 0.18 mL
- overall preventive effect on Adjuvant Arthritis ([1]; rats, 10, 5, 2.5 mg/kg iv for 15 days): able to prevent Adjuvant Arthritis in rats
- swell value ([2]; 2.5 mg/kg iv, 0 day): 1.06 ± 0.09 mL
- inhibition rate ([2]; 2.5 mg/kg iv, 19 day): <14.36> %
- swell rate ([2]; 2.5 mg/kg iv, 19 day): (84.26 ± 14.31) %
- swell value ([2]; 2.5 mg/kg iv, 19 day): 1.96 ± 0.16 mL
- inhibition rate ([2]; 2.5 mg/kg iv, 21 day): <15.81> %
- swell rate ([2]; 2.5 mg/kg iv, 21 day): (89.42 ± 18.47) %
- swell value ([2]; 2.5 mg/kg iv, 21 day): 2.00 ± 0.07 mL
- inhibition rate ([2]; 2.5 mg/kg iv, 23 day): <24.02> %
- swell rate ([2]; 2.5 mg/kg iv, 23 day): (80.92 ± 16.84) %
- swell value ([2]; 2.5 mg/kg iv, 23 day): 1.91 ± 0.08 mL
- inhibition rate ([2]; 2.5 mg/kg iv, 26 day): <27.71> %
- swell rate ([2]; 2.5 mg/kg iv, 26 day): (81.13 ± 10.03) %
- swell value ([2]; 2.5 mg/kg iv, 26 day): 1.92 ± 0.08 mL
- inhibition rate ([2]; 2.5 mg/kg iv, 30 day): <19.36> %
- swell rate ([2]; 2.5 mg/kg iv, 30 day): (84.80 ± 19.66) %
- swell value ([2]; 2.5 mg/kg iv, 30 day): 1.96 ± 0.16 mL
- swell value ([2]; 5 mg/kg iv, 0 day): 1.10 ± 0.09 mL
- inhibition rate ([2]; 5 mg/kg iv, 19 day): <17.31> %
- swell rate ([2]; 5 mg/kg iv, 19 day): (81.36 ± 13.10) %
- swell value ([2]; 5 mg/kg iv, 19 day): 2.00 ± 0.12 mL
- inhibition rate ([2]; 5 mg/kg iv, 21 day): <20.85> %
- swell rate ([2]; 5 mg/kg iv, 21 day): (84.07 ± 18.91) %
- swell value ([2]; 5 mg/kg iv, 21 day): 2.03 ± 0.20 mL
- inhibition rate ([2]; 5 mg/kg iv, 23 day): <23.19> %
- swell rate ([2]; 5 mg/kg iv, 23 day): (81.81 ± 14.58) %
- swell value ([2]; 5 mg/kg iv, 23 day): 2.01 ± 0.23 mL
- inhibition rate ([2]; 5 mg/kg iv, 26 day): <27.40> %
- swell rate ([2]; 5 mg/kg iv, 26 day): (81.48 ± 11.30) %
- swell value ([2]; 5 mg/kg iv, 26 day): 2.00 ± 0.19 mL
- inhibition rate ([2]; 5 mg/kg iv, 30 day): <20.33> %
- swell rate ([2]; 5 mg/kg iv, 30 day): (83.77 ± 17.65) %
- swell value ([2]; 5 mg/kg iv, 30 day): 2.03 ± 0.25 mL
- swell value ([2]; 10 mg/kg iv, 0 day): 1.05 ± 0.09 mL
- inhibition rate ([2]; 10 mg/kg iv, 19 day): <9.69> %
- swell rate ([2]; 10 mg/kg iv, 19 day): (88.85 ± 23.27) %
- swell value ([2]; 10 mg/kg iv, 19 day): 1.97 ± 0.24 mL
- inhibition rate ([2]; 10 mg/kg iv, 21 day): <31.57> %
- swell rate ([2]; 10 mg/kg iv, 21 day): (72.69 ± 29.97) %
- swell value ([2]; 10 mg/kg iv, 21 day): 1.81 ± 0.33 mL
- inhibition rate ([2]; 10 mg/kg iv, 23 day): <31.92> %
- swell rate ([2]; 10 mg/kg iv, 23 day): (72.50 ± 22.18) %
- swell value ([2]; 10 mg/kg iv, 23 day): 1.80 ± 0.21 mL
- inhibition rate ([2]; 10 mg/kg iv, 26 day): <36.15> %
- swell rate ([2]; 10 mg/kg iv, 26 day): (71.66 ± 24.46) %
- swell value ([2]; 10 mg/kg iv, 26 day): 1.79 ± 0.24 mL
- inhibition rate ([2]; 10 mg/kg iv, 30 day): <32.32> %
- swell rate ([2]; 10 mg/kg iv, 30 day): (71.17 ± 17.97) %
- swell value ([2]; 10 mg/kg iv, 30 day): 1.80 ± 0.26 mL
- overall treatment effect on Adjuvant Arthritis ([2]; rats, 10, 5, 2.5 mg/kg iv for 8 days from day 20): able to cure Adjuvant Arthritis in rats

From patent US20090281049A1, “New use of ginsenoside compound-k in manufacturing medicaments” (priority 2006, published 2009)
